Format in all cases: cell-based
In one assay the test system is INF-γ. The assay is described as follows: Cytokine assay: INF-γ production by human PBMC stimulated with PHA. The conditions noted are these: Homo sapiens, PBMC, IC50 class, read-out: IFN-gamma Inhib. Here is the method:
(§1) Cytokine Assay: Analysis of Proliferation of and Cytokine Production by Human PBMC Stimulated with PHA
(§2) Peripheral blood mononuclear cells (PBMC) from healthy human donors were purified using Accuspin™ System-Histopaque-1077 (Sigma) according to the protocol recommended by the manufacturer. Purified PBMC were then washed twice with phosphate-buffered saline (PBS) and resuspended in RPMI1640 culture medium supplemented with 10% dialyzed heat inactivated fetal calf serum, 1.5 mM L-glutamine, 100 U penicillin/ml, and […] (all from PAN Biotech, Aidenbach, Germany). For stimulation, PBMC were seeded at 1×10^5 cells/well, activated with 2 μg/ml phytohaemagglutinin (PHA, Sigma) and incubated with the test compounds for 48 hours. IL-17A, IL-17F and INF-γ were then determined in the culture supernatant using a Luminex BioPlex system, following the manufacturer's instructions (BioRad, Munich, Germany). For screening, compounds were used at 10, 1, 0.1 and 0.01 μM. To determine the IC50, compounds were titrated semilogarithmically.
(§3) Cytokines were determined in the aforementioned culture supernatant using the following methods: IL-17A was measured using the human homodimer IL-17A ELISA Ready Set Go Kit from eBioscience (Frankfurt, Germany); IL-17F using the human IL-17F ELI-Pair from Hölzel DiagnosticaGmBH (Köln, Germany); and IFN-γ using the OptEIA human IFN-g ELISA from BD Bioscience (Heidelberg, Germany), all following the manufacturer's instructions.

Another assay has as its system IL-17F. Put plainly: Cytokine assay: IL-17F production by human PBMC stimulated with PHA. The settings on record: Homo sapiens, PBMC, IC50 class, read-out: IL-17F Inhib. Here is the method:
as §1, §2, §3

Another assay deals with IL-17A. The assay is described as follows: Cytokine assay: IL-17A production by human PBMC stimulated with PHA. The settings on record: Homo sapiens, PBMC, IC50 class, read-out: IL-17A Inhib. The method, then:
as §1, §2, §3

Results on 21 compounds are retold here after patent US11292788B2, “IL-17 and IFN-gamma inhibition for the treatment of autoimmune diseases and chronic inflammation” (Immunic AG, priority 2017, dated 2022).

pIC50: −log10 of the molar value.

Consider `Cc1c(-c2onc(-c3ccccc3Cl)c2-c2ccncn2)cnn1[C@H]1C[C@@](C)(O)C1` [Example 107, 3-{4-[3-(2-chlorophenyl)-4-(pyrimidin-4-yl)-1,2-oxazol-5-yl]-5-methyl-1H-pyrazol-1-yl}-1-methylcyclobutan-1-ol], for which the pIC50 is above 7.30 in the assay on INF-γ, 6.30 to 7.30 in the assay with IL-17F and 6.30 to 7.30 in the assay with IL-17A.
On to `Cc1c(-c2onc(-c3c(F)cccc3Cl)c2-c2ccncn2)cnn1[C@H]1C[C@@](C)(O)C1` [Example 108, 3-{4-[3-(2-chloro-6-fluorophenyl)-4-(pyrimidin-4-yl)-1,2-oxazol-5-yl]-5-methyl-1H-pyrazol-1-yl}-1-methylcyclobutan-1-ol], for which the pIC50 in the assay on INF-γ, with IL-17F and with IL-17A was 6.30 to 7.30 throughout.
With `Cc1c(-c2onc(-c3ccccc3Cl)c2-c2cnccn2)cnn1[C@H]1C[C@@](C)(O)C1` [Example 109, 3-{4-[3-(2-chlorophenyl)-4-(pyrazin-2-yl)-1,2-oxazol-5-yl]-5-methyl-1H-pyrazol-1-yl}-1-methylcyclobutan-1-ol], the pIC50 is 6.30 to 7.30 in the assay on INF-γ, 5.30 to 6.30 in the assay on IL-17F and 5.30 to 6.30 in the assay on IL-17A.
As to `COc1ccccc1-c1noc(-c2cnn(C[C@@H](C)O)c2C(F)(F)F)c1-c1ncccn1` [Example 113, (2R)-1-{4-[3-(2-methoxyphenyl)-4-(pyrimidin-2-yl)-1,2-oxazol-5-yl]-5-(trifluoromethyl)-1H-pyrazol-1-yl}propan-2-ol], the pIC50 in the assay on INF-γ is 5.30 to 6.30; in the assay with IL-17F it was 6.30 to 7.30; in the assay with IL-17A, 5.30 to 6.30.
For `COc1ccccc1-c1noc(-c2cnn(CC(C)(C)O)c2C(F)(F)F)c1-c1ncccn1` [Example 114, 1-{4-[3-(2-methoxyphenyl)-4-(pyrimidin-2-yl)-1,2-oxazol-5-yl]-5-(trifluoromethyl)-1H-pyrazol-1-yl}-2-methylpropan-2-ol], the pIC50 was 5.30 to 6.30 in the assay with INF-γ, at most 5.30 in the assay with IL-17F and at most 5.30 with IL-17A.
As for `COc1ccccc1-c1noc(-c2cnn(C[C@@H](C)O)c2C(F)(F)F)c1-c1ccncn1` [Example 115, (2R)-1-{4-[3-(2-methoxyphenyl)-4-(pyrimidin-4-yl)-1,2-oxazol-5-yl]-5-(trifluoromethyl)-1H-pyrazol-1-yl}propan-2-ol], the pIC50 in the assay on INF-γ is 6.30 to 7.30; in the assay on IL-17F, 5.30 to 6.30; with IL-17A, 5.30 to 6.30.
With `COc1ccccc1-c1noc(-c2cnn(CC(C)(C)O)c2C(F)(F)F)c1-c1ccncn1` [Example 116, 1-{4-[3-(2-methoxyphenyl)-4-(pyrimidin-4-yl)-1,2-oxazol-5-yl]-5-(trifluoromethyl)-1H-pyrazol-1-yl}-2-methylpropan-2-ol], the pIC50 with INF-γ was 5.30 to 6.30; in the assay on IL-17F, at most 5.30; with IL-17A, at most 5.30.
In the case of `COc1cccc(-c2noc(-c3cnn(C[C@@H](C)O)c3C(F)(F)F)c2-c2ncccn2)c1Cl` [Example 117, (2R)-1-{4-[3-(2-chloro-3-methoxyphenyl)-4-(pyrimidin-2-yl)-1,2-oxazol-5-yl]-5-(trifluoromethyl)-1H-pyrazol-1-yl}propan-2-ol], the pIC50 is 6.30 to 7.30 in the assay on INF-γ, 5.30 to 6.30 with IL-17F and 5.30 to 6.30 with IL-17A.
Take `COc1cccc(-c2noc(-c3cnn(C[C@@H](C)O)c3C(F)(F)F)c2-c2ccncn2)c1Cl` [Example 119, (2R)-1-{4-[3-(2-chloro-3-methoxyphenyl)-4-(pyrimidin-4-yl)-1,2-oxazol-5-yl]-5-(trifluoromethyl)-1H-pyrazol-1-yl}propan-2-ol]: the pIC50 with INF-γ was 6.30 to 7.30; in the assay on IL-17F it was 5.30 to 6.30; with IL-17A, 5.30 to 6.30.
On to `COc1cccc(-c2noc(-c3cnn(CC(C)(C)O)c3C(F)(F)F)c2-c2ccncn2)c1Cl` [Example 120, 1-{4-[3-(2-chloro-3-methoxyphenyl)-4-(pyrimidin-4-yl)-1,2-oxazol-5-yl]-5-(trifluoromethyl)-1H-pyrazol-1-yl}-2-methylpropan-2-ol], for which the pIC50 with INF-γ was 5.30 to 6.30; with IL-17F, at most 5.30; in the assay on IL-17A it was 5.30 to 6.30.
As to `CC(C)(O)CCn1ncc(-c2onc(-c3ccccc3Cl)c2-c2ncccn2)c1C(F)(F)F` [Example 122, 4-{4-[3-(2-chlorophenyl)-4-(pyrimidin-2-yl)-1,2-oxazol-5-yl]-5-(trifluoromethyl)-1H-pyrazol-1-yl}-2-methylbutan-2-ol], the pIC50 with INF-γ, in the assay with IL-17F and with IL-17A was above 7.30 throughout.
Take `CC(C)(O)CCn1ncc(-c2onc(-c3cccc(O)c3Cl)c2-c2ncccn2)c1C(F)(F)F` [Example 129, 2-chloro-3-{5-[1-(3-hydroxy-3-methylbutyl)-5-(trifluoromethyl)-1H-pyrazol-4-yl]-4-(pyrimidin-2-yl)-1,2-oxazol-3-yl}phenol]: the pIC50 was 5.30 to 6.30 in the assay with INF-γ, 6.30 to 7.30 with IL-17F and 6.30 to 7.30 in the assay on IL-17A.
Turning to `CN1CCN(CCOc2cccc(-c3noc(-c4cnn(CCC(C)(C)O)c4C(F)(F)F)c3-c3ncccn3)c2Cl)CC1` [Example 136, 4-[4-(3-{2-chloro-3-[2-(4-methylpiperazin-1-yl)ethoxy]phenyl}-4-(pyrimidin-2-yl)-1,2-oxazol-5-yl)-5-(trifluoromethyl)-1H-pyrazol-1-yl]-2-methylbutan-2-ol], the pIC50 with INF-γ, in the assay on IL-17F and in the assay on IL-17A was 6.30 to 7.30 throughout.
With `CN(C)CCCOc1cccc(-c2noc(-c3cnn(CCC(C)(C)O)c3C(F)(F)F)c2-c2ncccn2)c1Cl` [Example 140, 4-[4-(3-{2-chloro-3-[3-(dimethylamino)propoxy]phenyl}-4-(pyrimidin-2-yl)-1,2-oxazol-5-yl)-5-(trifluoromethyl)-1H-pyrazol-1-yl]-2-methylbutan-2-ol], the pIC50 with INF-γ, in the assay on IL-17F and with IL-17A was 6.30 to 7.30 throughout.
As to `CC(C)(O)CCn1ncc(-c2onc(-c3cccc(OCCCN4CCCC4)c3Cl)c2-c2ncccn2)c1C(F)(F)F` [Example 142, 4-[4-(3-{2-chloro-3-[3-(pyrrolidin-1-yl)propoxy]phenyl}-4-(pyrimidin-2-yl)-1,2-oxazol-5-yl)-5-(trifluoromethyl)-1H-pyrazol-1-yl]-2-methylbutan-2-ol], the pIC50 in the assay with INF-γ, with IL-17F and with IL-17A was 6.30 to 7.30 throughout.
On to `CCN(CC)CCCOc1cccc(-c2noc(-c3cnn(CCC(C)(C)O)c3C(F)(F)F)c2-c2ncccn2)c1Cl` [Example 143, 4-[4-(3-{2-chloro-3-[3-(diethylamino)propoxy]phenyl}-4-(pyrimidin-2-yl)-1,2-oxazol-5-yl)-5-(trifluoromethyl)-1H-pyrazol-1-yl]-2-methylbutan-2-ol], for which the pIC50 in the assay with INF-γ, in the assay with IL-17F and in the assay with IL-17A was above 7.30 each time.
`COC(=O)c1c(-c2cccc(OCCN(C)C)c2Cl)noc1-c1cnn(C[C@H](C)O)c1C(F)(F)F` [Example 149, methyl 3-{2-chloro-3-[2-(dimethylamino)ethoxy]phenyl}-5-{1-[(2S)-2-hydroxypropyl]-5-(trifluoromethyl)-1H-pyrazol-4-yl}-1,2-oxazole-4-carboxylate]: the pIC50 with INF-γ is 6.30 to 7.30; in the assay on IL-17F, 5.30 to 6.30; in the assay on IL-17A it was 6.30 to 7.30.
Consider `C[C@@H](O)Cn1ncc(-c2onc(-c3cccc(C(=O)N4CCOCC4)c3Cl)c2-c2ccncn2)c1C(F)(F)F` [Example 154, (R)-(2-chloro-3-(5-(1-(2-hydroxypropyl)-5-(trifluoromethyl)-1H-pyrazol-4-yl)-4-(pyrimidin-4-yl)isoxazol-3-yl)phenyl) (morpholino)methanone], for which the pIC50 in the assay with INF-γ was 6.30 to 7.30; in the assay on IL-17F, at most 5.30; in the assay on IL-17A it was 5.30 to 6.30.
Turning to `C[C@@H](O)Cn1ncc(-c2onc(-c3cccc(C(=O)NC4CCC4)c3Cl)c2-c2ccncn2)c1C(F)(F)F` [Example 155, (R)-2-chloro-N-cyclobutyl-3-(5-(1-(2-hydroxypropyl)-5-(trifluoromethyl)-1H-pyrazol-4-yl)-4-(pyrimidin-4-yl)isoxazol-3-yl)benzamide], the pIC50 with INF-γ, in the assay on IL-17F and with IL-17A was 6.30 to 7.30 in each case.
For the compound `CCNC(=O)c1cccc(-c2noc(-c3cnn(C[C@@H](C)O)c3C(F)(F)F)c2-c2ccncn2)c1Cl` [Example 156, (R)-2-chloro-N-ethyl-3-(5-(1-(2-hydroxypropyl)-5-(trifluoromethyl)-1H-pyrazol-4-yl)-4-(pyrimidin-4-yl)isoxazol-3-yl)benzamide], the pIC50 is 5.30 to 6.30 with INF-γ, at most 5.30 in the assay with IL-17F and at most 5.30 with IL-17A.
With `CC(C)NC(=O)c1cccc(-c2noc(-c3cnn(C[C@@H](C)O)c3C(F)(F)F)c2-c2ccncn2)c1Cl` [Example 157, (R)-2-chloro-3-(5-(1-(2-hydroxypropyl)-5-(trifluoromethyl)-1H-pyrazol-4-yl)-4-(pyrimidin-4-yl)isoxazol-3-yl)-N-isopropylbenzamide], the pIC50 in the assay with INF-γ was 6.30 to 7.30; in the assay on IL-17F, 5.30 to 6.30; in the assay on IL-17A it was 5.30 to 6.30.
